This experiment deals with human cardiac Na+ channel alpha subunit (SCN5A, hH1) (Homo sapiens, UniProt Q14524). Kind of experiment: whole-cell patch clamp, use-dependent block at […] external. Type of experiment: cell-based. The following applies: read-out: % use-dependent block at 10 μM.
Chain of human cardiac Na+ channel alpha subunit (SCN5A, hH1) (Q14524 whole entry): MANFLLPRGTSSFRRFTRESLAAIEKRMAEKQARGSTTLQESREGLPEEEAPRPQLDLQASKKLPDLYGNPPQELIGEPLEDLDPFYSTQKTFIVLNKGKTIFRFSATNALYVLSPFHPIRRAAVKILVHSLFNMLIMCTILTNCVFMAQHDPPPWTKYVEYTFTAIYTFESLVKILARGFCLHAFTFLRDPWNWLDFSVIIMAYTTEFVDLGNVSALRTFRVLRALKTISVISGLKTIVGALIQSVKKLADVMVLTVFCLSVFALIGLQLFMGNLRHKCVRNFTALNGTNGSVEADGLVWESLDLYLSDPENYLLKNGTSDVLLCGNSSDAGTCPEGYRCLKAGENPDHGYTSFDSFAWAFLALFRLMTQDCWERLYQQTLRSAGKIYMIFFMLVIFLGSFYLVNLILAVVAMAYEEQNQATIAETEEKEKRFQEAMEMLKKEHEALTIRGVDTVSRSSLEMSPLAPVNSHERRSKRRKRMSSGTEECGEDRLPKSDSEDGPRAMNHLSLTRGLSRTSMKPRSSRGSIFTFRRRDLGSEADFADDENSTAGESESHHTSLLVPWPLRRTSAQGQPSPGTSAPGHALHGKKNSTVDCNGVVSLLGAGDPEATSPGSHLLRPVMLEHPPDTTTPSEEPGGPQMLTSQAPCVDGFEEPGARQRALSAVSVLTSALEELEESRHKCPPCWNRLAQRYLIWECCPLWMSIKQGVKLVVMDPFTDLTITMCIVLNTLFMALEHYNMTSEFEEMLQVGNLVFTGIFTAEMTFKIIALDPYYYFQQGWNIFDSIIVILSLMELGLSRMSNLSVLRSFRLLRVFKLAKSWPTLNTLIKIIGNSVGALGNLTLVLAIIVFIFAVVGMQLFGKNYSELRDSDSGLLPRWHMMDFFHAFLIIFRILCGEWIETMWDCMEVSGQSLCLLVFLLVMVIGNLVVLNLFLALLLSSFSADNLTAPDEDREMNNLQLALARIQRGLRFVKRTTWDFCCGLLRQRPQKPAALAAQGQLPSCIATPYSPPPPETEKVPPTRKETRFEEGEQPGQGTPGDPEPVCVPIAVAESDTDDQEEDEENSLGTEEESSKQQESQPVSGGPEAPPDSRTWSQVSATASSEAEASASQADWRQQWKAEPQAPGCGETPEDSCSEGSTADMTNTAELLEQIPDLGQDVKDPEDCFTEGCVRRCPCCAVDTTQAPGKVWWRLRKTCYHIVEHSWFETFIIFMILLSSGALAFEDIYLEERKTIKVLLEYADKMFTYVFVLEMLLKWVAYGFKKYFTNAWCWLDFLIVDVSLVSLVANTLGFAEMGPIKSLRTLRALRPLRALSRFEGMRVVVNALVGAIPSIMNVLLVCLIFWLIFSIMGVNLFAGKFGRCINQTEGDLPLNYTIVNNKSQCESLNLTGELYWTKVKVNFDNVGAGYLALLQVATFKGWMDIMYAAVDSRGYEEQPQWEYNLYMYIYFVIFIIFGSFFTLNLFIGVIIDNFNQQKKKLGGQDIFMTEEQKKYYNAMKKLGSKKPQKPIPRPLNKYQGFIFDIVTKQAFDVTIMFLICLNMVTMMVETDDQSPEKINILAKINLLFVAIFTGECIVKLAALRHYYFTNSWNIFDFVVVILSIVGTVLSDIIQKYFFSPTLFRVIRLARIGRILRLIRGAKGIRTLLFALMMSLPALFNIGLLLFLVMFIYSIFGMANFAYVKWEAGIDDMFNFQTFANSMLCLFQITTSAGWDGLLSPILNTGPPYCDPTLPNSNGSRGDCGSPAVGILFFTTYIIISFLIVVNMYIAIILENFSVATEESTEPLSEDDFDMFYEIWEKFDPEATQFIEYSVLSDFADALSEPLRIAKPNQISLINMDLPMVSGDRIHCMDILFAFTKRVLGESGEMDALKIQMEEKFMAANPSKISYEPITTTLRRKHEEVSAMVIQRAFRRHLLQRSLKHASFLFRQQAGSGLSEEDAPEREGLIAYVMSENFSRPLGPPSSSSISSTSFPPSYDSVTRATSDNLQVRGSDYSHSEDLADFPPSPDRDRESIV
Chain of human cardiac Na+ channel alpha subunit (SCN5A, hH1) (Q07699 19-218 partner): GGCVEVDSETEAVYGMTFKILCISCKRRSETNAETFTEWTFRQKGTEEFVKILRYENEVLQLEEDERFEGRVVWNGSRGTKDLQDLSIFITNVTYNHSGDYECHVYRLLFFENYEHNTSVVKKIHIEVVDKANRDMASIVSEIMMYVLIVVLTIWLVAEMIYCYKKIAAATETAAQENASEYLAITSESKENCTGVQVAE

In the case of `O=C(NCC1CCCCN1)c1cc(OCC(F)(F)F)ccc1OCC(F)(F)F` (stereo not shown) [flecainide], the inhibition at 10 µM worked out at 67.3 ± 3.5%.

These data come from PMC2217334 (The Journal of General Physiology, 2003).
